pIC50: −log10 of the molar value.
Tests used:
[1] = target: p300 HAT domain (residues 1287-1666) (Homo sapiens (Human), UniProt Q09472); assay: p300 HAT SPA assay (scintillation proximity assay, acetylation of biotinylated H3(1-21) peptide); type: biochemical; settings: p300 HAT domain; average of at least 2 replicate titrations; read-out: P300 HAT SPA IC50
Procedure, shortened: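 Purified p300 HAT domain reaction transferred to streptavidin plates to capture biotinylated H3(1-21) peptide, incubated 1.5 hr at RT, and read by scintillation proximity. IC50 values derived from concentration-response data.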

full length p300 = full length p300 (Homo sapiens (Human), UniProt Q09472); assay: full length p300 SPA assay; type: biochemical; settings: average of at least 2 replicate titrations, read-out: FL P300 IC50
full length p300, sequence (Q09472 whole entry): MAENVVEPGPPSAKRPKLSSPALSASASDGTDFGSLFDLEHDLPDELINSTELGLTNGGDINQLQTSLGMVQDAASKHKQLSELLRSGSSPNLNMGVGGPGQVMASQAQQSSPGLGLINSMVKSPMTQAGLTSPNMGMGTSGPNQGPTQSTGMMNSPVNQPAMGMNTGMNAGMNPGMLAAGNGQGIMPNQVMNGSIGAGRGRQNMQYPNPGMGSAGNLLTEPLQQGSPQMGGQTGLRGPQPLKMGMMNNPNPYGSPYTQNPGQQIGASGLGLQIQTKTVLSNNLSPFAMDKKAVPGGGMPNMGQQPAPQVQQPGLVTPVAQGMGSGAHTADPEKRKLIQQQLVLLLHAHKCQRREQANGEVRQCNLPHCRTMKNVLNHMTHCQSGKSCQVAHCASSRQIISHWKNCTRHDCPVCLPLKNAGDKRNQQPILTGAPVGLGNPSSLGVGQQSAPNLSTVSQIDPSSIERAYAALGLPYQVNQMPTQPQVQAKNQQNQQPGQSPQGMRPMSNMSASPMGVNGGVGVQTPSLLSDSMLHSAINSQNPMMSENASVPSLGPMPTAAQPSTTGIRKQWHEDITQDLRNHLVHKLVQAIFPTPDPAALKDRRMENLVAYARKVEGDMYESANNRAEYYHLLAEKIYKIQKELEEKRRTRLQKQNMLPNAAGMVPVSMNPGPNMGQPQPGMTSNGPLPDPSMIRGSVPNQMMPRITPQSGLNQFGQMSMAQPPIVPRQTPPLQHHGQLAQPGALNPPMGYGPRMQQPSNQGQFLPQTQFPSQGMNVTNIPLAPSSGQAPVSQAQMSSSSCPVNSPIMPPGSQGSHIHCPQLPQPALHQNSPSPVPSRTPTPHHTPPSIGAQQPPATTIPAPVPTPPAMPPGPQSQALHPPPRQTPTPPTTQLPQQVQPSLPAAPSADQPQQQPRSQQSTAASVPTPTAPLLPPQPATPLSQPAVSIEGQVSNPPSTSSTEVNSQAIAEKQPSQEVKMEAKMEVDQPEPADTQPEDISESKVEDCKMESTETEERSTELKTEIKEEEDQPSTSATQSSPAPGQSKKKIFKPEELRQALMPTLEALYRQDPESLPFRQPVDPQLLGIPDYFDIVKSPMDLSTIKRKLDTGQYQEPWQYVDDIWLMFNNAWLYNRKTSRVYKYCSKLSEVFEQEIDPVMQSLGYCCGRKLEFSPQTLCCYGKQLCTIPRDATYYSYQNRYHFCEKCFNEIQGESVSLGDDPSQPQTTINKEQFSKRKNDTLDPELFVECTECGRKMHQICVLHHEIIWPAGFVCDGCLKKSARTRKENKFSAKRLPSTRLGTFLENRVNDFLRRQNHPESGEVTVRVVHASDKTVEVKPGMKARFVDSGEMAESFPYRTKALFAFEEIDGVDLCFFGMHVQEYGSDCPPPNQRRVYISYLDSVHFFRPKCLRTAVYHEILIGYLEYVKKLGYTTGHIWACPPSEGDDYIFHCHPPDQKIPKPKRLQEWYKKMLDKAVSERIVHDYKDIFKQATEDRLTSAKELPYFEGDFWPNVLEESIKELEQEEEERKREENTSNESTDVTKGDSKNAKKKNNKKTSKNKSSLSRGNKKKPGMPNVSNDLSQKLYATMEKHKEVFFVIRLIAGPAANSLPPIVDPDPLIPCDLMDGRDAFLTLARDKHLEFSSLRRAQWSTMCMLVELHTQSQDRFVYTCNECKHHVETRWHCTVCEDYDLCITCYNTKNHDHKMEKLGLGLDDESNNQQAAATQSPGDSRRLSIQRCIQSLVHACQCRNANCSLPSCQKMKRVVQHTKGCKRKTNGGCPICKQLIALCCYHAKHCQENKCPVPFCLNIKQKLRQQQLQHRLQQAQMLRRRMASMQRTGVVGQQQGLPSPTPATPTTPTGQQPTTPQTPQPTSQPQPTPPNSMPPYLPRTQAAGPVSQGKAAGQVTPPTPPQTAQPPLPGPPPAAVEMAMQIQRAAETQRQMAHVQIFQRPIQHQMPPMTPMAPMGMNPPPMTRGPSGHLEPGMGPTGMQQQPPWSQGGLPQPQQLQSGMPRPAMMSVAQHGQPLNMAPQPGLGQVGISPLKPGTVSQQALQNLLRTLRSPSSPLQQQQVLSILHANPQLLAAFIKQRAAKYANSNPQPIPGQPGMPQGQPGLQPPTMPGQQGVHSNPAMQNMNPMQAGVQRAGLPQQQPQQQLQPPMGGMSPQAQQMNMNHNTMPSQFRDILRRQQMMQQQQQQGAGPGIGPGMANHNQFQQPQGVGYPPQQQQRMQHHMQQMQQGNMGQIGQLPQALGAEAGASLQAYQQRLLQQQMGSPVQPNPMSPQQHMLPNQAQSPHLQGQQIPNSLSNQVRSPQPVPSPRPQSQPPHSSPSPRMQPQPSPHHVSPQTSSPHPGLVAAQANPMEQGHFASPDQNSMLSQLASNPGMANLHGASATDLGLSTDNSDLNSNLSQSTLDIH
Procedure: Reactions were initiated with 12.5 μL 2 μM biotinylated H3(1-21) peptide (New England Peptide) and run for 1 hr at RT, then quenched with 20 μL stop solution (200 mM Tris pH 8.0, 200 mM EDTA, 2M NaCl, 160 μM anacardic acid). 35 μL of the reaction volume was transferred to a 384-well streptavidin FlashPlate (PerkinElmer) using a Bravo liquid handler (Velocity 11) and incubated for 1.5 hr at RT. Plates were aspirated, washed with 95 μL wash buffer (15 mM Tris pH 8.5, 0.069 μM Brij-35), aspirated, sealed, and scintillation counts read on a Topcount (PerkinElmer). Data were analyzed in Genedata to determine inhibitor IC50 values.
The full length p300 SPA assay was run following the same protocol as p300 HAT SPA assay, but used 6 nM purified full length p300 (purchased from Active Motif) in place of the purified p300-HAT domain.

p300 HAT domain (residues 1287-1666), sequence (Q09472 1287-1666): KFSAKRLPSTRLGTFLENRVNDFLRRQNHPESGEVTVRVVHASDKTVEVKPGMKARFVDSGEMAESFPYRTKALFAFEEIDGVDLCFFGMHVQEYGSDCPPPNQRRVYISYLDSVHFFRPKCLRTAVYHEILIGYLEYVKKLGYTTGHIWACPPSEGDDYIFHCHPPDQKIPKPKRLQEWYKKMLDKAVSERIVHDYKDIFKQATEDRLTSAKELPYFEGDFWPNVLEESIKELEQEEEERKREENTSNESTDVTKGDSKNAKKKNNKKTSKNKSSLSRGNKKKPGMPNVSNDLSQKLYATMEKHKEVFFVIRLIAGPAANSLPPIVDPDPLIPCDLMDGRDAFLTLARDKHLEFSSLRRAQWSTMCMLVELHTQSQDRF

Row | SMILES | pIC50 [1] | pIC50 (full length p300)
1 | NS(=O)(=O)c1ccc(CCNC(C(=O)c2c[nH]c3cccc(Cl)c23)c2ccccc2)cc1 (single isomer, unassigned) [12 Isomer 2] | < 4.22 | 5.40
2 | NS(=O)(=O)c1ccc(CCNC(C(=O)c2c[nH]c3cc(Cl)ccc23)c2ccccc2)cc1 (single isomer, unassigned) [13 Isomer 1] | 4.74 | 6.33
3 | NS(=O)(=O)c1ccc(CCNC(C(=O)c2c[nH]c3cc(Cl)ccc23)c2ccccc2)cc1 (single isomer, unassigned) [13 Isomer 2] | 5.79 | 6.84
4 | NS(=O)(=O)c1ccc(CCNC(C(=O)c2c[nH]c3ccc(Cl)cc23)c2ccccc2)cc1 (single isomer, unassigned) [14 Isomer 1] | < 4.22 | 5.02
5 | NS(=O)(=O)c1ccc(CCNC(C(=O)c2c[nH]c3ccc(Cl)cc23)c2ccccc2)cc1 (single isomer, unassigned) [14 Isomer 2] | 4.32 | 5.73
6 | Cc1[nH]c2ccccc2c1C(=O)C(NCCc1ccc(S(N)(=O)=O)cc1)c1ccccc1 (single isomer, unassigned) [16 Isomer 2] | 5.16 | 6.42
7 | COc1ccc(CCNC(C(=O)c2c[nH]c3c(CCC(=O)N(C)C)cccc23)c2ccccc2)cc1 (single isomer, unassigned) [29 Isomer 1] | 5.66 | 7.04
8 | COc1ccc(CCNC(C(=O)c2c[nH]c3c(CCC(=O)N(C)C)cccc23)c2ccccc2)cc1 (single isomer, unassigned) [29 Isomer 2] | 5.18 | 6.66
9 | NS(=O)(=O)c1ccc(CCNC(C(=O)c2c[nH]c3cnccc23)c2ccccc2)cc1 (single isomer, unassigned) [32 Isomer 2] | 4.89 | 6.13
10 | NS(=O)(=O)c1ccc(CCNC(C(=O)c2c[nH]c3ncccc23)c2ccccc2)cc1 (single isomer, unassigned) [33 Isomer 1] | < 4.22 | 5.76
11 | NS(=O)(=O)c1ccc(CCNC(C(=O)c2c[nH]c3ncccc23)c2ccccc2)cc1 (single isomer, unassigned) [33 Isomer 2] | 5.00 | 6.26
12 | Cc1nc(C(=O)C(NCCc2ccc(Cl)cc2)c2ccccc2)c2ccccn12 (single isomer, unassigned) [45 Isomer 2] | 4.40 | 5.87
13 | O=C(c1cnc2ccccn12)C(NCCc1ccc(Cl)cc1)c1ccccc1 (single isomer, unassigned) [46 Isomer 1] | 5.05 | 4.88
14 | O=C(c1n[nH]c2ccccc12)C(NCCc1ccc(Cl)cc1)c1ccccc1 (single isomer, unassigned) [47 Isomer 1] | 5.32 | 5.88
15 | O=C(c1n[nH]c2ccccc12)C(NCCc1ccc(Cl)cc1)c1ccccc1 (single isomer, unassigned) [47 Isomer 2] | 4.69 | 5.89
16 | CNC(=O)Cc1ccc2c(C(=O)C(NCCc3ccc(C#N)cc3)c3ccccc3)c[nH]c2c1 (single isomer, unassigned) [62 Isomer 1] | 6.30 | 7.43
17 | CNC(=O)Cc1ccc2c(C(=O)C(NCCc3ccc(C#N)cc3)c3ccccc3)c[nH]c2c1 (single isomer, unassigned) [62 Isomer 2] | 5.48 | 7.29
18 | CN(C)C(=O)Cc1ccc2c(C(=O)C(NCCc3ccc(C#N)cc3)c3ccccc3)c[nH]c2c1 (single isomer, unassigned) [63 Isomer 2] | 5.60 | 7.34

Row | SMILES | pIC50 [1] | pIC50 (full length p300)
19 | O=C(c1c[nH]c2cc(-c3ccccn3)ccc12)C(NCCc1ccc(F)cc1)c1ccccc1 (single isomer, unassigned) [105 Isomer 2] | 5.86 | 7.60
20 | CN(C)C(=O)c1ccc(CCNC(C(=O)c2c[nH]c3ccccc23)c2ccccc2)cc1 (single isomer, unassigned) [135 Isomer 2] | 4.54 | 6.09
21 | Cn1cc(-c2ccc3c(C(=O)C(NCCc4ccc(C(=O)O)cc4)c4ccccc4)c[nH]c3c2)cn1 (single isomer, unassigned) [138 Isomer 1] | 6.35 | 7.52
22 | COc1ccc(CCN[C@H](C(=O)c2c[nH]c3c(C(C)C)cccc23)c2ccccc2)cc1 (single isomer, unassigned) [145 Isomer 1] | 4.73 | 6.23
23 | CNC(=O)c1cccc2c(C(=O)C(NCCc3ccc(Cl)cc3Cl)c3ccccc3)c[nH]c12 (single isomer, unassigned) [147 Isomer 2] | 5.31 | 6.47
24 | CN(C)C(=O)c1cccc2c(C(=O)C(NCCc3ccc(Cl)cc3Cl)c3ccccc3)c[nH]c12 (single isomer, unassigned) [148 Isomer 2] | 5.09 | 6.45
25 | CN(C)CCNC(=O)c1cccc2c(C(=O)C(NCCc3ccc(Cl)cc3Cl)c3ccccc3)c[nH]c12 (single isomer, unassigned) [149 Isomer 1] | 5.23 | 6.65
26 | COCCNC(=O)c1cccc2c(C(=O)C(NCCc3ccc(Cl)cc3Cl)c3ccccc3)c[nH]c12 (single isomer, unassigned) [150 Isomer 1] | 5.10 | 6.41
27 | CN(C)CCNC(=O)c1ccc2c(C(=O)C(NCCc3ccc(Cl)cc3Cl)c3ccccc3)c[nH]c2c1 (single isomer, unassigned) [153 Isomer 1] | 6.46 | 8.11
28 | CN(C)CCNC(=O)c1ccc2c(C(=O)C(NCCc3ccc(Cl)cc3Cl)c3ccccc3)c[nH]c2c1 (single isomer, unassigned) [153 Isomer 2] | 7.10 | 8.24
29 | COCCNC(=O)c1ccc2c(C(=O)C(NCCc3ccc(Cl)cc3Cl)c3ccccc3)c[nH]c2c1 (single isomer, unassigned) [154 Isomer 1] | 6.49 | 7.42
30 | COCCNC(=O)c1ccc2c(C(=O)C(NCCc3ccc(Cl)cc3Cl)c3ccccc3)c[nH]c2c1 (single isomer, unassigned) [154 Isomer 2] | 5.79 | 8.05
31 | N#Cc1ccc(CCNC(C(=O)c2c[nH]c3cc(C(=O)O)ccc23)c2ccccc2)cc1 (single isomer, unassigned) [155 Isomer 2] | 5.39 | 6.55
32 | CNC(=O)c1ccc2c(C(=O)C(NCCc3ccc(C#N)cc3)c3ccccc3)c[nH]c2c1 (single isomer, unassigned) [156 Isomer 1] | 6.23 | 7.54
33 | O=C(O)CCc1ccc2c(C(=O)C(NCCc3ccc(F)cc3)c3ccccc3)c[nH]c2c1 (single isomer, unassigned) [159 Isomer 2] | 5.23 | 6.56
34 | N#Cc1ccc(CCNC(C(=O)c2c[nH]c3cc(C(=O)NCCN4CCCC4=O)ccc23)c2ccccc2)cc1 (single isomer, unassigned) [164 Isomer 1] | 5.44 | 6.72
35 | N#Cc1ccc(CCNC(C(=O)c2c[nH]c3cc(C(=O)NCCN4CCCC4=O)ccc23)c2ccccc2)cc1 (single isomer, unassigned) [164 Isomer 2] | 6.85 | 8.22
